Test results from ChEMBL document CHEMBL1201862, “PubChem BioAssay data set” (2004).
Calls of active or inactive are those of the source.

How the values were obtained:
[1] = cytotoxicity in HEK-293T cells, dose response, cytotoxicity control for TCR NF-kB inhibitor project, luminescence, T-cell screen hits (AID 489026); type: functional, cell-based;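 note: cells exposed to compound about 14 hours before the viability readout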
cells = type: functional, cell-based; settings: HEK-CNG
INS1 = test: beta cell apoptosis inhibitors, cytokine rescue, dose response, luminescence, retest (AID 449756); type: functional, cell-based; settings: Rattus norvegicus;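 note: cell death triggered by IL-1 beta plus TNF-alpha plus IFN-gamma mixture; protective hits raise ATP signal compared with cytokine alone wells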
BJ [2] = test: cells; type: functional, cell-based; settings: Homo sapiens
BJ [3] = test: cytotoxicity toward BJ-TERT fibroblasts, dose response, cell-based, RAS-independent, luminescence (AID 1933); type: functional; settings: Homo sapiens
[4] = cytotoxicity toward DRD oncogenic fibroblasts, dose response, cell-based, non-viral oncogenic, luminescence (AID 1934); type: functional; settings: Homo sapiens
[5] = HepG2 cell cytotoxicity, dose response, cytotoxicity control for Shn3 inhibitor project, CellTiter-Glo, cherry-picked (AID 624134); type: functional, cell-based
[6] = Shn3 3'UTR reporter inhibitors, dose response, cell-based, Clone20 osteoblasts, firefly luciferase, cherry-picked (AID 624132); type: functional;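 note: firefly luciferase luminescence from reporter carrying the Shn3 3'UTR in osteoblasts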
[7] = control 3'UTR Renilla luciferase suppression, dose response, counter-screen for Shn3 inhibitor project, cell-based, Clone20-Shn3RL, cherry-picked (AID 624133); type: functional
Galanin receptor type 3 = molecular target: T1, Galanin receptor type 3 (Homo sapiens, UniProt O60755); test: Fluorescence-based cell-based primary high throughput dose response assay to identify antagonists of the Galanin Receptor 3 (GalR3).; type: functional
T1 sequence (O60755 whole entry): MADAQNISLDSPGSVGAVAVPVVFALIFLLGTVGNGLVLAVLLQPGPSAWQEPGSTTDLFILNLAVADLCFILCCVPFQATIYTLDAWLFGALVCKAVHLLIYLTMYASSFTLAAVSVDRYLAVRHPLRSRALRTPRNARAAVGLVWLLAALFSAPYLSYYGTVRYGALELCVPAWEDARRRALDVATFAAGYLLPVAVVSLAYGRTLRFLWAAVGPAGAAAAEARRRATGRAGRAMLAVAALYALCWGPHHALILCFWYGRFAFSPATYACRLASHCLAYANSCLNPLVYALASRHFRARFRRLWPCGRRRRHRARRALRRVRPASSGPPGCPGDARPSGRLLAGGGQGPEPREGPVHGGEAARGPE

BJ [8] = test: cytotoxicity toward BJ-TERT-LT-ST fibroblasts, dose response, cell-based, RAS-independent, luminescence (AID 1935); type: functional; settings: Homo sapiens;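 note: BJ fibroblasts immortalized with TERT plus LT and ST oncogenes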
[9] = molecular target: T2, Oxysterols receptor LXR-beta (Homo sapiens, UniProt P55055); test: LXR agonists, Gal4 luciferase reporter, dose response, counter-screen for ssDAF-12 agonist project, cell-based, luminescence, HEK293, S. stercoralis campaign (AID 720737); type: functional; settings: read-out: IC50 (the source's name)
T2 sequence (P55055 whole entry): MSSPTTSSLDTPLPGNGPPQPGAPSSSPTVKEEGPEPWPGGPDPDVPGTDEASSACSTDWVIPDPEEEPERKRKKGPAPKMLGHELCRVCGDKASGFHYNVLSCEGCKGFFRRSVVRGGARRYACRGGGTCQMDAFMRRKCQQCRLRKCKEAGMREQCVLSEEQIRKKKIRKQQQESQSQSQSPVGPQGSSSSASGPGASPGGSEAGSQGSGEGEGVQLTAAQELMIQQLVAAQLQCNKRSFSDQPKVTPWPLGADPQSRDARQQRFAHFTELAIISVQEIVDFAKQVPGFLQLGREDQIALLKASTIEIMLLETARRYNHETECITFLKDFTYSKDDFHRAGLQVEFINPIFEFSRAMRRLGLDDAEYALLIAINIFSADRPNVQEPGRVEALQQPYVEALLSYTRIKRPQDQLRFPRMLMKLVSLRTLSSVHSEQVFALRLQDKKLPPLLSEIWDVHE

[10] = Luminescence-based cell-based high throughput dose response assay to identify activators of the DAF-12 from the parasite S. stercoralis (ssDAF-12).; type: functional
[11] = molecular target: T3, Histone-lysine N-methyltransferase NSD2 (Homo sapiens, UniProt O96028); type: biochemical
T3 sequence (O96028 whole entry): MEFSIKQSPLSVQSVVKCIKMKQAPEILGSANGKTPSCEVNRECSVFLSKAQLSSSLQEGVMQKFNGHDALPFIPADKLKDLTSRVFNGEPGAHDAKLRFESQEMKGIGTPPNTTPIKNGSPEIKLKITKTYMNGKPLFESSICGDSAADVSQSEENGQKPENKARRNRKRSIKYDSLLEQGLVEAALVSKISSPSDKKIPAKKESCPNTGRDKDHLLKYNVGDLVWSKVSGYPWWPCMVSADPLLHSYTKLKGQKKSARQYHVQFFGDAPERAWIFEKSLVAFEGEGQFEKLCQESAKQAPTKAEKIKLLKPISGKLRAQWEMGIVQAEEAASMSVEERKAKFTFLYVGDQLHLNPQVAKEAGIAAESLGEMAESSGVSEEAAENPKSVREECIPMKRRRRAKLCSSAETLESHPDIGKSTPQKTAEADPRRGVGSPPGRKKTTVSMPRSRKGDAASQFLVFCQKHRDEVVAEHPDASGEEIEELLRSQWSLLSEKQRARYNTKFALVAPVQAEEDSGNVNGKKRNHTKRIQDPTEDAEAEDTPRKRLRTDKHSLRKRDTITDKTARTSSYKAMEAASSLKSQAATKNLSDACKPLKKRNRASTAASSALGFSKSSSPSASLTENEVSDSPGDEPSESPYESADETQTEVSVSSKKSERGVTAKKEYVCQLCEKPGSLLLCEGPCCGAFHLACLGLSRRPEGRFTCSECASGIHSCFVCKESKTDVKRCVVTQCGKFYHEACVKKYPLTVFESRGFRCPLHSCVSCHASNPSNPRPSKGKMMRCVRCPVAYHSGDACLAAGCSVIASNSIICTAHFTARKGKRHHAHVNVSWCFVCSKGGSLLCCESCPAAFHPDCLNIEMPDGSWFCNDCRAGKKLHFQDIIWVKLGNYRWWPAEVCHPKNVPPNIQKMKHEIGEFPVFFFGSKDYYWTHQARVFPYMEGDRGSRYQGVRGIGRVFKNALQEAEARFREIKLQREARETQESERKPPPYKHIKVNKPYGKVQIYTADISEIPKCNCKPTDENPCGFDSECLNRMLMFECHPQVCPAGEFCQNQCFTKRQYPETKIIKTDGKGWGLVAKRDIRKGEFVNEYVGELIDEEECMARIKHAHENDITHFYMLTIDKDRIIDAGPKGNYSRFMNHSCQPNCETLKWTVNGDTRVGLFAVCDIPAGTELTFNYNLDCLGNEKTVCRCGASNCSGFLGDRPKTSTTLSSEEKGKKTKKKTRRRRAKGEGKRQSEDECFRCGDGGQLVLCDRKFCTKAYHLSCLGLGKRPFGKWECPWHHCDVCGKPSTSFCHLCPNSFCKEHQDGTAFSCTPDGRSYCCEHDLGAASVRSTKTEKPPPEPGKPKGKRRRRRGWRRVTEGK

Caspase-6 = molecular target: T4, Caspase-6 (Homo sapiens, UniProt P55212); test: human caspase-6 inhibitors, dose response, biochemical, VEID-R110 fluorescence, cherry-pick (AID 720632)
T4 sequence (P55212 whole entry): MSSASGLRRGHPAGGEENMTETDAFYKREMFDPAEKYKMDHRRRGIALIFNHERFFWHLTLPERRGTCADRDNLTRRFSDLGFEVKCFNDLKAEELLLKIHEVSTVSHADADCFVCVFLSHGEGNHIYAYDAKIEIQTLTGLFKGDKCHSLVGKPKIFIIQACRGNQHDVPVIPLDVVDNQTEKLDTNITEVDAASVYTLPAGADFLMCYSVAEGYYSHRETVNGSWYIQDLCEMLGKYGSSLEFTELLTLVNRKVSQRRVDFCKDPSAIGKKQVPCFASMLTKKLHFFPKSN

Cytochrome P450 2C9 = Cytochrome P450 2C9 (Homo sapiens, UniProt P11712)
Cytochrome P450 2C19 = Cytochrome P450 2C19 (Homo sapiens, UniProt P33261); test: Cytochrome panel assay with activity outcomes. Panel member name: p450-cyp2c19 Compounds with AC50 equal or less than 10 uM are considered active; type: functional; settings: read-out: AC50
[12] = molecular target: T5, COUP transcription factor 2 (Homo sapiens, UniProt P24468); test: Luminescence-based cell-based high throughput dose response assay to identify inhibitors of COUP-TFII (NR2F2).; type: functional;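 note: HEK293 cells transiently cotransfected with COUP-TFII expression vector and reporter; luciferase reporter luminescence driven by COUP-TFII from the pX2-168 reporter plasmid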
T5 sequence (P24468 whole entry): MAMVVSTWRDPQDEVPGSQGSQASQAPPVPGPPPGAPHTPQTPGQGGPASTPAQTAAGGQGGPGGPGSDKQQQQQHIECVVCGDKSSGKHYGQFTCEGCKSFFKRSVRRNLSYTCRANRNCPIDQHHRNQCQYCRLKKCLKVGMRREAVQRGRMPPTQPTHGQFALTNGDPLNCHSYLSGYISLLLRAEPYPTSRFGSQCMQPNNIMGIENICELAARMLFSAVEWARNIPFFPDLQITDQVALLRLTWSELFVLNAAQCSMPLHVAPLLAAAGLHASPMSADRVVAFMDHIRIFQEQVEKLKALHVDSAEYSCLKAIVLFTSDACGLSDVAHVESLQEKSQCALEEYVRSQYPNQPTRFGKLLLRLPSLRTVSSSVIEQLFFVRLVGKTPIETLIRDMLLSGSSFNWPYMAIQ

[13] = molecular target: Peroxisome proliferator-activated receptor gamma/Nuclear receptor corepressor 2 (Homo sapiens, UniProt P37231+Q9Y618); test: Counterscreen for NR2E3 inverse agonists: TR-FRET-based biochemical high throughput dose response assay to identify inverse agonists of the interaction between peroxisome proliferator-activated receptor gamma (PPARg) and nuclear receptor co-repressor 2 (NCOR2).; type: functional
[14] = molecular target: Photoreceptor-specific nuclear receptor (Homo sapiens, UniProt Q9Y5X4); test: NR2E3 inverse agonists, dose response, biochemical, TR-FRET (AID 463256); type: functional
Paired box protein Pax-8 = Paired box protein Pax-8 (Homo sapiens, UniProt Q06710); test: inhibitors of PAX8-driven TPO luciferase reporter, dose response, RMG-I cells, cherry-pick (AID 687027); type: functional, cell-based;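 note: luciferase reporter driven by Pax8 target thyroperoxidase promoter measured by SteadyGlo luminescence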
[15] = HepG2 cell cytotoxicity, dose response, cytotoxicity control, cherry-picked samples (AID 1159577); type: functional, cell-based
[16] = P. falciparum Dd2 growth inhibitors, dose response, SYBR Green, cherry-picked samples (AID 1159567); type: functional, cell-based
[17] = IGROV1 ovarian cancer cell cytotoxicity, dose response, PAX8 inhibitor project, plate reader, dry powder samples (AID 743043); type: functional, cell-based; settings: IGROV-1
[18] = growth inhibition of replicating M. tuberculosis, dose response, counter-screen, dry powder, IC90 (AID 651617); type: functional; settings: Mycobacterium tuberculosis
[19] = inhibitors of non-replicating M. tuberculosis, dose response, luciferase, dry powder (AID 651619); type: functional; settings: Mycobacterium tuberculosis
[20] = inhibitors of non-replicating M. tuberculosis, dose response, luciferase, dry powder (AID 651620); type: functional; settings: Mycobacterium tuberculosis
[21] = P. falciparum Dd2 growth inhibitors, dose response, SYBR Green, dry powder samples (AID 1159566); type: functional, cell-based;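 note: potency for growth inhibition with lower SYBR green DNA signal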
[22] = P. falciparum 3D7-ScDHODH growth inhibitors, dose response, SYBR Green, dry powder samples (AID 1159570); type: functional, cell-based;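 note: parasite growth measured after 72 hours of compound exposure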
[23] = P. falciparum ATP4 D1247Y mutant growth inhibitors, dose response, NITD609-resistant line, SYBR Green, dry powder (AID 1159571); type: functional, cell-based;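 note: parasites synchronized at ring stage by sorbitol before testing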

Chain of Cytochrome P450 2C9 (P11712 whole entry): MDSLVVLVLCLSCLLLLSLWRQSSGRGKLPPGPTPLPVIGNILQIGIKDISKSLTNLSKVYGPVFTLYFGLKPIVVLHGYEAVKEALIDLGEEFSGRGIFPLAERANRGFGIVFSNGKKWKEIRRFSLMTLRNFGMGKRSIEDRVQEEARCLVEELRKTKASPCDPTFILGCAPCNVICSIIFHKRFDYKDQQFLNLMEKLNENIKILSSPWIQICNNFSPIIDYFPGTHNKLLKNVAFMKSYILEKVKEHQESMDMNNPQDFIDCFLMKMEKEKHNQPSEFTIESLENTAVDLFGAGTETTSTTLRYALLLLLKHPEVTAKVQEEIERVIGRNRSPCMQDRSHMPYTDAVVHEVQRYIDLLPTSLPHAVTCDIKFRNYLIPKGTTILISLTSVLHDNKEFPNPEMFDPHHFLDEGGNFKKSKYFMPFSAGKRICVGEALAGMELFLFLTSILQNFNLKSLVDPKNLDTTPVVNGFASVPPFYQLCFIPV
Chain of Photoreceptor-specific nuclear receptor (Q9Y5X4 whole entry): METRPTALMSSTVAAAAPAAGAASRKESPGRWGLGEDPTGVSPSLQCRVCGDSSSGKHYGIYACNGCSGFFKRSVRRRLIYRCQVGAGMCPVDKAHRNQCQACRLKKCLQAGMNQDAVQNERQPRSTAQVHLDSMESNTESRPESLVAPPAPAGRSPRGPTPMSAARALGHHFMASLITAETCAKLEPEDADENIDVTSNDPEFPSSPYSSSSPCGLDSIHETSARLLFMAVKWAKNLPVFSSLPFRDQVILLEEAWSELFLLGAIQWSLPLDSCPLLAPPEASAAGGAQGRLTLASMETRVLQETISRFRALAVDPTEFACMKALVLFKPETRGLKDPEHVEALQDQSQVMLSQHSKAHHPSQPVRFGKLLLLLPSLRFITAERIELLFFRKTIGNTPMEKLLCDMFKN
Chain of Peroxisome proliferator-activated receptor gamma/Nuclear receptor corepressor 2 (P37231 whole entry): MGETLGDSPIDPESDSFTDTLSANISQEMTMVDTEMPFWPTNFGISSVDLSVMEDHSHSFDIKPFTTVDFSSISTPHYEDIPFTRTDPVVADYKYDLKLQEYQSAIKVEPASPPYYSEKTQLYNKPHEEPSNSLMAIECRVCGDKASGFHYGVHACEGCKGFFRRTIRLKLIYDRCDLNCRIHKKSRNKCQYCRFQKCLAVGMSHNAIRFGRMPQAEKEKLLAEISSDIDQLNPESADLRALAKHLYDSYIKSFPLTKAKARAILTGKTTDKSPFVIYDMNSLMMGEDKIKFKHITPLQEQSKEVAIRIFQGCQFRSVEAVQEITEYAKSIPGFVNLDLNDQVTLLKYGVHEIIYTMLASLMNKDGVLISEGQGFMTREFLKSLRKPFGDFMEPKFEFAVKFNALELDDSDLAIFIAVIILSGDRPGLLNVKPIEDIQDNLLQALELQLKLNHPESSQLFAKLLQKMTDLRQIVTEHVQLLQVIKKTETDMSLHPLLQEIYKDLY
Chain of Peroxisome proliferator-activated receptor gamma/Nuclear receptor corepressor 2 (Q9Y618 whole entry): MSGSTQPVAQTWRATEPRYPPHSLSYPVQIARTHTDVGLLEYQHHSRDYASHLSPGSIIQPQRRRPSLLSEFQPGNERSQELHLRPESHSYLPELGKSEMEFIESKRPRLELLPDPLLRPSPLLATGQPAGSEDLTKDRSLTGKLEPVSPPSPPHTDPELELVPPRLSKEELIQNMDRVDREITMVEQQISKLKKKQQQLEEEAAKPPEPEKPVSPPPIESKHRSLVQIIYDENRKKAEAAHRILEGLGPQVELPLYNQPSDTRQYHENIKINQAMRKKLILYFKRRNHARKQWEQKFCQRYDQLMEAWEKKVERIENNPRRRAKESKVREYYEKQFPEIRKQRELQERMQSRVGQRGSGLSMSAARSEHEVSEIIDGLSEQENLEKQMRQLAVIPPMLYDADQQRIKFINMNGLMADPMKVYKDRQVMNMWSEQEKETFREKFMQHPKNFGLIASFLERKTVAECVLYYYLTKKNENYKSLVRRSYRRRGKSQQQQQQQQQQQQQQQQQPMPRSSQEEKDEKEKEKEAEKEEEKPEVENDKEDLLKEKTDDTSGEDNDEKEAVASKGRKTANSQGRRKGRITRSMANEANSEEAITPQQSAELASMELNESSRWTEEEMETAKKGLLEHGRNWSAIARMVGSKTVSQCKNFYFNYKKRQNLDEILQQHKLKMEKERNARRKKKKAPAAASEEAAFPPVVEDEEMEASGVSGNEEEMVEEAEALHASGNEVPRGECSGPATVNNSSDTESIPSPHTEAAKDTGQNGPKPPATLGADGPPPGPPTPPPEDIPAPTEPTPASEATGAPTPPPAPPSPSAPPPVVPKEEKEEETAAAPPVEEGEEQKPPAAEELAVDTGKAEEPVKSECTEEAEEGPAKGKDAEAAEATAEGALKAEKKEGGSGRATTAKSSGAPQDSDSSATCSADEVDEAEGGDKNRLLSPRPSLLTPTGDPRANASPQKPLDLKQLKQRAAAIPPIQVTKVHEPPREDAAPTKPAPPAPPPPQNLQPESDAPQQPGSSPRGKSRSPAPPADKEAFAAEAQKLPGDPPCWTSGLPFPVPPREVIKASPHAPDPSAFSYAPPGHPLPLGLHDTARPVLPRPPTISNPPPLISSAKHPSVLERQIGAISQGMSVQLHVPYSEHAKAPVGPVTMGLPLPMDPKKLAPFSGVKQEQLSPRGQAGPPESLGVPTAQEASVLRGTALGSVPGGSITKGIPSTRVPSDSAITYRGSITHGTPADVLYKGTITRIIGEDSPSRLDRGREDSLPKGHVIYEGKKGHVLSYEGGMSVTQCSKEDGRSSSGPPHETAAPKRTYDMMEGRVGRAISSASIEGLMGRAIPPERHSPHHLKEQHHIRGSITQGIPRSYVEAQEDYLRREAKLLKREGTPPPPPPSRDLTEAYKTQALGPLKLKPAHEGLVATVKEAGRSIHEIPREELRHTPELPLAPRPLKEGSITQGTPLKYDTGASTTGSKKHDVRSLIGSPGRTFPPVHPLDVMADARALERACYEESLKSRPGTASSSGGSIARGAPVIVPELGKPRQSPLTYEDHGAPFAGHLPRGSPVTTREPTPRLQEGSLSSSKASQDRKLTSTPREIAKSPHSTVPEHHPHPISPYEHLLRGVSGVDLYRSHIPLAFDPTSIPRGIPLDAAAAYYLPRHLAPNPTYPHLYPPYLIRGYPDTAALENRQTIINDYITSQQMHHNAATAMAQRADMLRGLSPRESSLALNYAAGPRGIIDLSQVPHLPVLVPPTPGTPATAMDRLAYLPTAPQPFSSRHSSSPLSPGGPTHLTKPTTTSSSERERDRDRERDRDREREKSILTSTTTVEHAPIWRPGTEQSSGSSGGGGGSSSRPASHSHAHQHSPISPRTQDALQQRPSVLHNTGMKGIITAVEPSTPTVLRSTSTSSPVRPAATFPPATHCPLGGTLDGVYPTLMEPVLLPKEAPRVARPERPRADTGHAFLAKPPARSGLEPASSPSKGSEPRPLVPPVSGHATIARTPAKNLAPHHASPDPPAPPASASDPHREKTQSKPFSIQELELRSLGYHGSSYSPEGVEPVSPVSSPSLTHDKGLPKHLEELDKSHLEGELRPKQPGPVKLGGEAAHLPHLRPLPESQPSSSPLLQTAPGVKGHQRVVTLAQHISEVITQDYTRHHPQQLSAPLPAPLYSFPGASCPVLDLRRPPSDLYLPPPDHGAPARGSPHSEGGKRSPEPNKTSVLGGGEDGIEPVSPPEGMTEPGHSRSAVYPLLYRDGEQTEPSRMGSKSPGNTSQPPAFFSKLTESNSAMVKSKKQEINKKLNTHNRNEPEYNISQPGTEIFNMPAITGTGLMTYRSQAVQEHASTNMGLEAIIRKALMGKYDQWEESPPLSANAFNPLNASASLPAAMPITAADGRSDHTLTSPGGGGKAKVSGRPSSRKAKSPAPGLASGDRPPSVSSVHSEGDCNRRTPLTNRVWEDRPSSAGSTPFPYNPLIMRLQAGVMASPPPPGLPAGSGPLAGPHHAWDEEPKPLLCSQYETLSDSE
Chain of Paired box protein Pax-8 (Q06710 whole entry): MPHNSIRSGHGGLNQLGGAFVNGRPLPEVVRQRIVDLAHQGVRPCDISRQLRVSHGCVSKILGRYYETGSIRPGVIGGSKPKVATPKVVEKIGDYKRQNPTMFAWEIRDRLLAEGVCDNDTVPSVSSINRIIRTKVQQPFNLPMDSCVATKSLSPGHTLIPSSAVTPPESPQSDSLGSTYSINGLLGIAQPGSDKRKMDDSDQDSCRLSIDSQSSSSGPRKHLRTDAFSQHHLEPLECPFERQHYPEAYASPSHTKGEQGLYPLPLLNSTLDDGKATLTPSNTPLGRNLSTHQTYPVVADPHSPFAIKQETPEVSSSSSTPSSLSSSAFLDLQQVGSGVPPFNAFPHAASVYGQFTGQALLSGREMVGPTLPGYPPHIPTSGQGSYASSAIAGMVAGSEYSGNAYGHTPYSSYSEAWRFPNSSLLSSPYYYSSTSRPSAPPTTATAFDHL
Chain of Cytochrome P450 2C19 (P33261 whole entry): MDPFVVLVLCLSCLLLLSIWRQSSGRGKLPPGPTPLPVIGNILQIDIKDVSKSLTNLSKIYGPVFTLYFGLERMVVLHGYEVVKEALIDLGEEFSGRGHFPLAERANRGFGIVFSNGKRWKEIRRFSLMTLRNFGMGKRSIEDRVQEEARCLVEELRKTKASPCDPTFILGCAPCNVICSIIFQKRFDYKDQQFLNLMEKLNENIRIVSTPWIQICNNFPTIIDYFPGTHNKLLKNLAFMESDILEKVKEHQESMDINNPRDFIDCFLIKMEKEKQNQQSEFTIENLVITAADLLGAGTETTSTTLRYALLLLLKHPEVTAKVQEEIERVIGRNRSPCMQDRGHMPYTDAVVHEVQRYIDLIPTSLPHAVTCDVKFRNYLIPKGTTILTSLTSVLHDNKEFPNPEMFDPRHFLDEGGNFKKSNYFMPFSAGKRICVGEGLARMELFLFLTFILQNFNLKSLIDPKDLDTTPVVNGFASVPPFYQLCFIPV

Compound: O=S(=O)(c1ccc2c(c1)OCCO2)N1CCN(c2ncnc3sccc23)CC1
- IC50 [1]: > 80 µM (inactive)
- EC50 (cells): > 29.9 µM (inactive)
- AC50 (INS1): 3.37 µM (active)
- EC50 (BJ [2]): > 150 µM (not active)
- EC50 (BJ [3]): > 150 µM (not active)
- EC50 [4]: > 150 µM (not active)
- AC50 [5]: 3.21 µM (active)
- AC50 [6]: 1.45 µM (active)
- AC50 [7]: 29.6 µM (active)
- IC50 (Galanin receptor type 3): 2.06 µM (active)
- EC50 (BJ [8]): > 150 µM (not active)

Compound: Fc1ccc(-c2cnn3c(-c4cccs4)ccnc23)cc1
- EC50 [9]: > 67.5 µM (inactive)
- IC50 [10]: > 67.5 µM (inactive)

Compound: Nc1cc(S(=O)(=O)O)cc2ccc(S(=O)(=O)O)cc12
- AC50 [11]: > 20 µM (inactive)
- AC50 (Caspase-6): 45.1 µM (active)
- AC50 (Cytochrome P450 2C9): 7.94 µM (inconclusive)
- AC50 (Cytochrome P450 2C19): 7.94 µM (inconclusive)

Compound: O=C(O)c1ccccc1SCC(=O)N1CCc2ccccc21
- EC50 [9]: > 67.5 µM (inactive)
- IC50 [10]: > 67.5 µM (inactive)

Compound: COC(=O)C1CCCCN1C(=O)c1cc(COc2cccc3cnccc23)on1 (centres undefined)
- EC50 (cells): > 29.9 µM (inactive)
- AC50 (INS1): 3.68 µM (active)
- IC50 [12]: 7.34 µM (active)
- IC50 (Galanin receptor type 3): 1.48 µM (active)

Compound: O=C(CSc1nnc(-c2cccs2)n1-c1ccccc1)Nc1ccccc1
- IC50 [13]: 11.8 µM (not active)
- IC50 [14]: 5.52 µM (active)

Compound: COc1cc2c(cc1OC)C1C(=O)c3ccc4c(c3OC1CO2)CC(C(C)C)O4 (centres undefined)
- EC50 (cells): > 29.9 µM (inactive)
- IC50 [12]: 0.519 µM (active)
- AC50 [5]: 0.614 µM (active)
- AC50 [6]: < 0.26 µM (active)
- AC50 [7]: 5.08 µM (active)
- IC50 (Galanin receptor type 3): 0.0386 µM (active)

Compound: C[C@H](CO)N1C[C@H](C)[C@@H](CN(C)Cc2ccc(Cl)c(Cl)c2)Oc2ccc(NC(=O)Nc3ccc(C(F)(F)F)cc3)cc2CC1=O
- AC50 (Paired box protein Pax-8): 6.35 µM (active)
- AC50 [15]: 11.8 µM (active)
- AC50 [16]: 2.62 µM (active)
- AC50 [17]: 54.3 µM (active)

Compound: Fc1ccc(CSc2nnc(-c3ccccc3)o2)cc1
- IC90 [18]: 250 µM (active)
- IC90 [19]: 4 µM (active)
- IC90 [20]: 4 µM (active)

Compound: C/C=C/c1ccc2c(c1)[C@H]1[C@H](CCN1C(=O)c1ccc(F)cc1)[C@H](CO)N2
- AC50 [21]: 2.01 µM (active)
- AC50 [16]: 2.79 µM (active)
- AC50 [22]: 1.96 µM (active)
- AC50 [23]: 2 µM (active)

Compound: CCN(C[C@@H]1N[C@@H](CO)[C@H]1c1ccc(-c2ccc(F)cc2)cc1)C(=O)CN(C)C
- AC50 [15]: 8.36 µM (active)
- AC50 [16]: 2.05 µM (active)
